The source of these data is PubChem BioAssay AID296 (DTP/NCI, 2004).

This assay deals with MX-1 breast xenograft, nude mice, tumor weight T/C. Nature of the assay: NCI In Vivo Anticancer Drug Screen. Data for tumor model Human Mammary Carcinoma MX-1 Xenograft (intrarenal inoculation) in NU/NU Swiss (nude) mice. Particulars: endpoint: mean tumor weight change, higher = larger tumour. Put shortly: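 Compound dosed to mice with transplantable tumor; vehicle group as control. Endpoint survival or tumour size, reported as T/C.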
Background: A xenograft is tissue or cells of one species grown in another, often human tumour cells in immunodeficient mice.

The mark [1] stands for this setting: dose: 300.0 mg/kg/injection, schedule: Q04DX003 (sc), vehicle: saline with Tween-80.
The mark [2] stands for this setting: dose: 600.0 mg/kg/injection, schedule: Q04DX003 (sc), vehicle: saline with Tween-80.
The mark [3] stands for this setting: dose: 1200.0 mg/kg/injection, schedule: Q04DX003 (sc), vehicle: saline with Tween-80.
Where [4] appears, read: dose: 2400.0 mg/kg/injection, schedule: Q04DX003 (sc), vehicle: saline with Tween-80.
Setting [5] is: dose: 18.75 mg/kg/injection, schedule: Q04DX003 (sc), vehicle: suspension in saline.
Where [6] appears, read: dose: 300.0 mg/kg/injection, schedule: Q04DX003 (sc), vehicle: saline.

Molecules are shown by their SMILES. “And” between values parts separate entries of the source, which are not always exact repeats. Identical values can stand only once. Records with an inconclusive call do not appear.

For `O=C1[C@H]2CCC[C@H]2[C@H]2CCC[C@@H]12`, the T/C is, setting by setting: under setting [1], 112 % of control; under setting [2], 123 % of control; under setting [3], 95 % of control; under setting [4], 92 % of control.

Regarding `O=CC(O)C(O)C(O)C(O)C(=O)O.[NH-]C1CCCCC1[NH-].[Pt+2]` (stereo unspecified), the T/C was 48 % of control (dose: 9.38 mg/kg/injection, schedule: Q04DX003 (sc), vehicle: suspension in saline) and 28 % of control under setting [5].

`CCC(=O)N(C)[C@@H](C)C(=O)O[C@H]1CC(=O)N(C)c2cc(cc(OC)c2Cl)C/C(C)=C/C=C[C@@H](OC)[C@@]2(O)C[C@H](OC(=O)N2)[C@@H](C)[C@@H]2O[C@@]12C`: the T/C is 117 % of control (dose: 0.07 mg/kg/injection, schedule: Q04DX003 (sc), vehicle: saline + alcohol); 98 % of control (dose: 0.13 mg/kg/injection, schedule: Q04DX003 (sc), vehicle: saline + alcohol); 88 % of control (dose: 0.25 mg/kg/injection, schedule: Q04DX003 (sc), vehicle: saline + alcohol); 7 % of control (dose: 0.5 mg/kg/injection, schedule: Q04DX003 (sc), vehicle: saline + alcohol).

For the compound `O=S1(=O)CS(=O)(=O)OCCO1`, the T/C reads like this: (dose: 37.5 mg/kg/injection, schedule: Q04DX003 (sc), vehicle: Klucel (hydroxypropylcellulose) (HPC)) 25 % of control; (dose: 75.0 mg/kg/injection, schedule: Q04DX003 (sc), vehicle: Klucel (hydroxypropylcellulose) (HPC)) 42 % of control; (dose: 150.0 mg/kg/injection, schedule: Q04DX003 (sc), vehicle: Klucel (hydroxypropylcellulose) (HPC)) 7 % of control.

Consider `C[n+]1c(-c2cccc(OCCOCCOc3cccc(-c4c5cc(N)ccc5c5ccc(N)cc5[n+]4C)c3)c2)c2cc(N)ccc2c2ccc(N)cc21`, for which the T/C was 92 % of control (dose: 4.0 mg/kg/injection, schedule: Q04DX003 (sc), vehicle: water) and 73 % of control (dose: 64.0 mg/kg/injection, schedule: Q04DX003 (sc), vehicle: water).

As for `Oc1ccc(O)cc1`, the T/C by setting is: (dose: 25.0 mg/kg/injection, schedule: Q04DX003 (sc), vehicle: saline) 81 % of control; (dose: 50.0 mg/kg/injection, schedule: Q04DX003 (sc), vehicle: saline) 71 % of control; (dose: 100.0 mg/kg/injection, schedule: Q04DX003 (sc), vehicle: saline) 75 % of control.

For the compound `N#Cc1cn(C2OC(CO)C(O)C2O)c2ncnc(N)c12` (stereo unspecified), the T/C (dose: 0.5 mg/kg/injection, schedule: Q01DX010 (sc), vehicle: saline) was 172 % of control.

On to `CN1C(=O)C(=Cc2ccc(O)cc2)C(=O)N(C)C1=O`, for which the T/C is, setting by setting: under setting [1], 96 % of control; under setting [2], 92 % of control; under setting [3], 99 % of control; under setting [4], 107 % of control.

For the compound `COc1cc(NS(C)(=O)=O)ccc1Nc1c2ccccc2nc2ccccc12`, the T/C (dose: 0.75 mg/kg/injection, schedule: Q01DX010 (sc), vehicle: lactic acid) is 124 % of control and the T/C (dose: 3.75 mg/kg/injection, schedule: Q01DX010 (sc), vehicle: clinical formulation) is 54 % of control.

In the case of `COc1ccc(CC2C(=O)NC(C)C(=O)N(C)C3Cc4ccc(cc4)Oc4cc(ccc4O)CC(C(=O)NC(C)C(=O)NC(C)C(=O)N2C)N(C)C3=O)cc1` (stereo unspecified), the T/C (dose: 8.0 mg/kg/injection, schedule: Q04DX003 (sc), vehicle: saline with Tween-80) is 28 % of control and 44 % of control and 47 % of control; the T/C (dose: 16.0 mg/kg/injection, schedule: Q04DX003 (sc), vehicle: saline with Tween-80) was 20 % of control and 26 % of control and 43 % of control; the T/C (dose: 32.0 mg/kg/injection, schedule: Q04DX003 (sc), vehicle: saline with Tween-80) is 6 % of control and 18 % of control.

As for `CCC(C(=O)O)C(=O)O.[NH2-].[NH2-].[Pt+2]`, the T/C reads like this: (dose: 75.0 mg/kg/injection, schedule: Q04DX003 (sc), vehicle: saline) -95 % of control; (dose: 150.0 mg/kg/injection, schedule: Q04DX003 (sc), vehicle: saline) -82 % of control; under setting [6], -99 % of control.

Turning to `CCC(C)Nc1ccc(N)cc1` (stereo unspecified), the T/C is, setting by setting: (dose: 4.5 mg/kg/injection, schedule: Q04DX003 (sc), vehicle: Klucel (hydroxypropylcellulose) (HPC)) 50 % of control; (dose: 18.0 mg/kg/injection, schedule: Q04DX003 (sc), vehicle: Klucel (hydroxypropylcellulose) (HPC)) 76 % of control.

With `Cc1cn(C2CC(F)C(CO)O2)c(=O)[nH]c1=O` (stereo unspecified), the T/C runs as follows: (dose: 150.0 mg/kg/injection, schedule: Q04DX003 (sc), vehicle: suspension in saline) 56 % of control; (dose: 300.0 mg/kg/injection, schedule: Q04DX003 (sc), vehicle: suspension in saline) 105 % of control; (dose: 600.0 mg/kg/injection, schedule: Q04DX003 (sc), vehicle: suspension in saline) 111 % of control; (dose: 1200.0 mg/kg/injection, schedule: Q04DX003 (sc), vehicle: suspension in saline) 93 % of control.

As to `CCN(CC)CCNc1ccc(C)c2sc3ccccc3c(=O)c12`, the T/C reads like this: (dose: 50.0 mg/kg/injection, schedule: Q01DX010 (sc), vehicle: saline) 79 % of control; (dose: 100.0 mg/kg/injection, schedule: Q01DX010 (sc), vehicle: saline) 53 % of control.

For the compound `O=NNc1ccccn1`, the T/C (dose: 1.0 mg/kg/injection, schedule: Q01DX010 (sc), vehicle: saline) is 78 % of control; the T/C (dose: 2.0 mg/kg/injection, schedule: Q01DX010 (sc), vehicle: saline) is 86 % of control; the T/C (dose: 3.13 mg/kg/injection, schedule: Q01DX010 (sc), vehicle: saline) is 20 % of control; the T/C (dose: 4.0 mg/kg/injection, schedule: Q01DX010 (sc), vehicle: saline) is 163 % of control; the T/C (dose: 6.25 mg/kg/injection, schedule: Q01DX010 (sc), vehicle: saline) is 50 % of control and 72 % of control; the T/C (dose: 8.0 mg/kg/injection, schedule: Q04DX003 (sc), vehicle: saline) was 103 % of control. The T/C reads like this: (dose: 25.0 mg/kg/injection, schedule: Q01DX010 (sc), vehicle: saline) 1 % of control; (dose: 64.0 mg/kg/injection, schedule: Q01DX010 (sc), vehicle: saline) -87 % of control.

Consider `Cn1cnc([N+](=O)[O-])c1Sc1ncn[nH]1`, for which the T/C is 72 % of control (dose: 100.0 mg/kg/injection, schedule: Q04DX003 (sc), vehicle: suspension in saline); 95 % of control (dose: 200.0 mg/kg/injection, schedule: Q04DX003 (sc), vehicle: suspension in saline); 92 % of control (dose: 400.0 mg/kg/injection, schedule: Q04DX003 (sc), vehicle: suspension in saline).

As for `[CH3][Sn]([CH3])([Cl])[S]CCN`, the T/C reads like this: under setting [5], 77 % of control; (dose: 75.0 mg/kg/injection, schedule: Q04DX003 (sc), vehicle: suspension in saline) 157 % of control.

Turning to `CCN(CC)CCNc1ccc(C)c2sc3ccc(O)cc3c(=O)c12`, the T/C is 67 % of control under setting [2] and 57 % of control under setting [3].

On to `ClCC[N+]12CC[N+](CCCl)(CC1)C2`, for which the T/C is 106 % of control (dose: 3.12 mg/kg/injection, schedule: Q01DX010 (sc), vehicle: saline with Tween-80); 69 % of control (dose: 6.25 mg/kg/injection, schedule: Q01DX010 (sc), vehicle: saline with Tween-80); 108 % of control (dose: 12.5 mg/kg/injection, schedule: Q01DX010 (sc), vehicle: saline with Tween-80); 96 % of control (dose: 25.0 mg/kg/injection, schedule: Q01DX010 (sc), vehicle: saline with Tween-80); 39 % of control and 57 % of control (dose: 50.0 mg/kg/injection, schedule: Q01DX010 (sc), vehicle: water); 51 % of control (dose: 75.0 mg/kg/injection, schedule: Q04DX003 (sc), vehicle: water). For the same compound, the T/C (dose: 100.0 mg/kg/injection, schedule: Q01DX010 (sc), vehicle: water) is 7 % of control and 13 % of control; the T/C (dose: 135.0 mg/kg/injection, schedule: Q04DX003 (sc), vehicle: water) was 45 % of control and 63 % of control; the T/C (dose: 150.0 mg/kg/injection, schedule: Q01DX010 (sc), vehicle: water) is 15 % of control; the T/C (dose: 150.0 mg/kg/injection, schedule: Q04DX003 (sc), vehicle: water) is 32 % of control; the T/C (dose: 200.0 mg/kg/injection, schedule: Q01DX010 (sc), vehicle: water) was -36 % of control and -32 % of control; the T/C (dose: 400.0 mg/kg/injection, schedule: Q01DX010 (sc), vehicle: saline with Tween-80) was 5 % of control. Also, the T/C (dose: 450.0 mg/kg/injection, schedule: Q04DX003 (sc), vehicle: water) is 12 % of control and 27 % of control.

With `CONc1ccn(C2OC(CO)C(O)C2O)c(=O)n1` (stereo unspecified), the T/C under setting [6] was 86 % of control; the T/C (dose: 600.0 mg/kg/injection, schedule: Q04DX003 (sc), vehicle: saline) is 74 % of control; the T/C (dose: 1200.0 mg/kg/injection, schedule: Q04DX003 (sc), vehicle: saline) is 107 % of control; the T/C (dose: 2400.0 mg/kg/injection, schedule: Q04DX003 (sc), vehicle: saline) is 77 % of control.
